Source: US8110228B2, “Composition for treatment of menopause” (Bionovo, Inc., priority 2005, dated 2012)
Marks after values point to notes of the source that are not given here.

Columns and labels:
[1] = tested on: U2OS-ERα and U2OS-ERβ cell lines; assay: Affymetrix U95Av2 microarray, genes regulated across U2OS-ERα and U2OS-ERβ cell lines; type: cell-based, human; conditions: for number of genes Activated, α + β / number of genes Repressed, α + β: in both cell lines; for number of genes Activated, α + β / number of genes Repressed, α + β / total genes regulated in U2OSα and U2OSβ cell lines: 18 h; for total genes regulated in U2OSα and U2OSβ cell lines: p<0.05, 10 nM E2, 1 μM raloxifene or 1 μM tamoxifen
Method: (§1) To identify genes regulated by ERα and/or ERβ, the U2OS-ERα and U2OS-ERβ cell lines were treated with doxycycline for 18 h in the absence or presence of 10 nM E2. Total RNA was used to prepare cRNA for hybridization with the human U95Av2 Affymetrix microarrays, which contain 12,600 known genes. Six sets of comparative expression data of untreated vs. each treated group were used to determine the genes regulated in ERα or ERβ cells.
(§2) Microarray data obtained from human Affymetrix U95Av2 gene chips from untreated vs. ligand-treated samples were analyzed using the Affymetrix Microarray Suite Version 5.0. Candidate genes displaying a statistically significant (p<0.05) increase or decrease signal changes relative to controls in at least three experiments were further selected by a ±0.8 signal log ratio mean cut-off. […] Fold-changes in the U2OS-ERα and U2OS-ERβ samples (in parentheses) were calculated relative to the untreated samples.

U2OS-ERβ cells [2] = assay: Affymetrix U95Av2 gene expression microarray in U2OS-ERβ cells; type: cell-based, human
Method: as §1, §2

U2OS-ERα cells [3] = assay: Affymetrix U95Av2 gene expression microarray in U2OS-ERα cells; type: cell-based, human; conditions: for number of genes Activated, α / number of genes Repressed, α: 10 nM E2, 1 μM raloxifene or 1 μM tamoxifen
Method: as §1, §2

[4] = tested on: U2OS-ERα and U2OS-ERβ cell lines; assay: Affymetrix U95Av2 microarray, genes regulated across U2OS-ERα and U2OS-ERβ cell lines; type: cell-based, human; conditions: for number of common genes with opposite expression patterns in ERα cells compared to ERβ cells (*): α + β, 1 μM SERM, 18 h
breast cancer graft = breast cancer graft (xenograft) growth, control vs DES vs MF101; type: in vivo
Excerpt: (§3) In a similar experiment, the effect of MF101 on breast cancer cells was compared to that of diethylstilbestrol (DES). […] FIGS. 3G and 3H show the effect of control, DES and MF101 on a breast cancer graft mass (FIG. 3G) and a uterine horn mass (FIG. 3H).

uterine horn = uterine horn mass, control vs DES vs MF101; type: in vivo; conditions: FIG. 3H
Excerpt: as §3

U2OS-ERβ cells [5] = conditions: relative to untreated, 18 h
U2OS-ERα cells [6] = conditions: relative to untreated, 18 h
human ERβ = molecular target: T1, human ERβ (Homo sapiens, UniProt Q92731); assay: ERE-tk-Luc reporter activation in U2OS osteosarcoma cells transfected with ERβ; type: cell-based; conditions: FIG. 1B
T1 construct: expressed in transfected cells; host or cells: U2OS osteosarcoma cells, transient transfection

[7] = only in U2OS-ERα cells, percent of all regulated genes

T1 sequence (Q92731 whole entry): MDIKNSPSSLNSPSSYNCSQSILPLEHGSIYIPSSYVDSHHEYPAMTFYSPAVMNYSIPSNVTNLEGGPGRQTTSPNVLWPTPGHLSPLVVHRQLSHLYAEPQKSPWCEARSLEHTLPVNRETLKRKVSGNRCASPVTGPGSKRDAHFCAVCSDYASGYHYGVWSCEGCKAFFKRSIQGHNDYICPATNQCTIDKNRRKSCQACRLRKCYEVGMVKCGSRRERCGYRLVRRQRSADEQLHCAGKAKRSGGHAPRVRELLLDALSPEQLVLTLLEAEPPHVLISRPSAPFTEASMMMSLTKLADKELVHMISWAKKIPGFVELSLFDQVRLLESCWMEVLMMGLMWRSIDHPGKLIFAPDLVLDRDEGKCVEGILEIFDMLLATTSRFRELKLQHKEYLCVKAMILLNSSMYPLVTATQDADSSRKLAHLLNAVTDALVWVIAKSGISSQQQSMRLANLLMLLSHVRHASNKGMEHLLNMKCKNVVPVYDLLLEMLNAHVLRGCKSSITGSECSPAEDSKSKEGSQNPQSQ

| SMILES | number of genes Activated, α + β [1] | number of genes Repressed, α + β [1] | total genes regulated in U2OSα and U2OSβ cell lines [1] | number of genes Activated, β (U2OS-ERβ cells [2]; only in U2OS-ERβ cells, 18 h) | number of genes Repressed, β (U2OS-ERβ cells [2]; only in U2OS-ERβ cells, 18 h) | number of genes Activated, α (U2OS-ERα cells [3]; only in U2OS-ERα cells, 18 h) | number of genes Repressed, α (U2OS-ERα cells [3]; only in U2OS-ERα cells, 18 h) | number of common genes with opposite expression patterns in ERα cells compared to ERβ cells (*) [4] | also measured |
| --- | --- | --- | --- | --- | --- | --- | --- | --- | --- |
| CC/C(=C(\c1ccccc1)c1ccc(OCCN(C)C)cc1)c1ccccc1 [tamoxifen] | 1 | 9 | Tamoxifen: 236 genes regulated in U2OSα and U2OSβ cell lines | 26 | 129 | 21 | 38 | 12* | percentage of genes regulated by tamoxifen that were also regulated by raloxifene [4]: 27% |
| CC/C(=C(/CC)c1ccc(O)cc1)c1ccc(O)cc1 [DES, diethylstilbestrol] | – | – | – | – | – | – | – | – | growth of xenograft (breast cancer graft mass) (breast cancer graft; FIG. 3G): substantial increase in xenograft mass; proliferation of breast cancer cells (breast cancer graft; FIGS. 3D-3F): proliferation-stimulating effect; growth of uterine horn mass (uterine horn): substantial increase in uterine horn growth |
| C[C@]12CC[C@@H]3c4ccc(O)cc4CC[C@H]3[C@@H]1CC[C@@H]2O [estradiol] | 34 | 4 | Estradiol: 228 genes regulated in U2OSα and U2OSβ cell lines | 87 | 38 | 33 | 32 | – | percentage of genes regulated by both ERα and ERβ ([1]; 10 nM E2, 38 of the 228): 17%; genes regulated by both ERα and ERβ ([1]; 10 nM E2, of the 228): 38 genes; total genes regulated in U2OSα and U2OSβ cell lines ([1]; listed as E2): 228 genes; genes regulated only in the U2OS-ERβ cells (U2OS-ERβ cells [2]; 10 nM E2): 125 genes; genes regulated only in the U2OS-ERα cells (U2OS-ERα cells [3]; 10 nM E2): 65 genes |
| O=C(c1ccc(OCCN2CCCCC2)cc1)c1c(-c2ccc(O)cc2)sc2cc(O)ccc12 [raloxifene] | – | – | Raloxifene: 190 genes regulated in U2OSα and U2OSβ cell lines | 52 | 101 | 10 | 10 | 17* | Fold-change by real-time PCR, NKG2C (β) (U2OS-ERβ cells [5]): 0.36 fold; Fold-change by real-time PCR, NKG2C (α) (U2OS-ERα cells [6]): 7.54 fold; relative percentage of common genes with opposite expression patterns (*) ([1]; α + β): (8.9%); Mean signal log ratio ± S.E., NKG2C (β) (U2OS-ERβ cells [2]; U2OS-ERβ, 18 h): −5.20 ± 0.08; relative percentage of genes Activated, β (U2OS-ERβ cells [2]; only in U2OS-ERβ cells): (27.4%); relative percentage of genes Repressed, β (U2OS-ERβ cells [2]; only in U2OS-ERβ cells): (53.2%); Mean signal log ratio ± S.E., NKG2C (α) (U2OS-ERα cells [3]; U2OS-ERα, 18 h): 2.40 ± 0.82; relative percentage of genes Activated, α (U2OS-ERα cells [3]; [7]): (5.3%); relative percentage of genes Repressed, α (U2OS-ERα cells [3]; [7]): (5.3%); blockade of the activation of ERE-tk-Luc by MF101 (human ERβ): blocked |
